The results in this text go back to ChEMBL document CHEMBL1201862, “PubChem BioAssay data set” (2004).

Molecules are shown by their SMILES.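 Each compound was tested at five concentrations against cells in 96-well plates for 48 hours. At the GI50, growth is halved.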 Active and inactive are the calls of the source. Rule as the data show it: active = GI50 up to about 1.1 µM and inactive = higher.

Some test systems named below: SR; RPMI-8226; OVCAR-8; HCC 2998; MOLT-4; SK-MEL-2; EKVX; HCT-116; SK-MEL-5; 786-0; NCI-H226; A549; UACC-62; M14; HL-60; SK-MEL-28; MDA-MB-435; CAKI-1; DU-145.
Holding throughout (test): DTP human tumour cell line panel, 48 h

As to `CCOC(=O)C1CCCc2sc(N)c(C#N)c21` (centres undefined), the GI50 with SR, in the assay on RPMI-8226, with OVCAR-8, with HCC 2998, in the assay on MOLT-4 and in the assay on SK-MEL-2 was > 100 µM (inactive) throughout. The GI50 (in general, the concentration that inhibits growth by half) in the assay with EKVX was 57.3 µM (inactive); with HCT-116, > 100 µM (inactive); with SK-MEL-5, > 100 µM (inactive); in the assay with 786-0 it was > 100 µM (inactive); with NCI-H226 it was > 100 µM (inactive); with A549, > 100 µM (inactive). Also, the GI50 in the assay with UACC-62, in the assay on M14, in the assay with HL-60 and with SK-MEL-28 was > 100 µM (inactive) in each case.
As for `COc1ccc(C2SCC(=O)N2c2ccc(-n3c(-c4ccccc4)nc4ccccc4c3=O)cc2)cc1OC` (centres undefined), the GI50 is > 100 µM (inactive) in the assay with SR; > 100 µM (inactive) in the assay on RPMI-8226; > 100 µM (inactive) with OVCAR-8; > 100 µM (inactive) in the assay on HCC 2998; 24.5 µM (inactive) with MOLT-4; > 100 µM (inactive) in the assay with SK-MEL-2. The GI50 with EKVX was > 100 µM (inactive); in the assay on MDA-MB-435, > 100 µM (inactive); in the assay on HCT-116, > 100 µM (inactive); with SK-MEL-5 it was > 100 µM (inactive); in the assay on 786-0 it was > 100 µM (inactive); in the assay on NCI-H226, 31.3 µM (inactive). In addition, the GI50 in the assay with CAKI-1 is > 100 µM (inactive); in the assay with A549 it was > 100 µM (inactive); in the assay on UACC-62, 62.1 µM (inactive); with M14, > 100 µM (inactive); with HL-60, > 100 µM (inactive); in the assay with SK-MEL-28, > 100 µM (inactive).
Take `CC(=O)Oc1cc2c[n+](C)c3c4cc(OC(C)=O)c(OC(C)=O)cc4ccc3c2cc1OC(C)=O`: the GI50 was 2.22 µM (inactive) in the assay with SR; > 20 µM (inactive) with RPMI-8226; 2.73 µM (inactive) with OVCAR-8; 9.23 µM (inactive) with HCC 2998; 3.78 µM (inactive) in the assay on DU-145; 3.56 µM (inactive) in the assay with EKVX. The GI50 was 2.3 µM (inactive) in the assay with HCT-116; 3.17 µM (inactive) with SK-MEL-5; 1.59 µM (inactive) in the assay on 786-0; 1.54 µM (inactive) in the assay on NCI-H226; 4.48 µM (inactive) in the assay on CAKI-1; 12.8 µM (inactive) in the assay with A549. Also, the GI50 was 3.97 µM (inactive) with UACC-62, 4.38 µM (inactive) in the assay with M14 and > 100 µM (inactive) with SK-MEL-28.
For `CN1c2ccccc2S(=O)(=O)n2c(COc3ccccc3)nnc21`, the GI50 with OVCAR-8, in the assay on HCC 2998, in the assay with MOLT-4, in the assay with DU-145, in the assay on SK-MEL-2 and in the assay with EKVX was > 100 µM (inactive) each time. The GI50 in the assay on MDA-MB-435 is > 100 µM (inactive); in the assay on HCT-116 it was > 100 µM (inactive); with SK-MEL-5 it was > 100 µM (inactive); in the assay on 786-0 it was 64.6 µM (inactive); with NCI-H226 it was > 100 µM (inactive); with CAKI-1, > 100 µM (inactive). In addition, the GI50 was > 100 µM (inactive) in the assay on A549; > 100 µM (inactive) with UACC-62; > 100 µM (inactive) in the assay with M14; 62.5 µM (inactive) in the assay on HL-60; > 100 µM (inactive) in the assay with SK-MEL-28.
With `O=C1OC(CC(=O)c2ccc(F)cc2)C(Cl)=C1Cl` (centres undefined), the GI50 with SR was 27.2 µM (inactive); in the assay with RPMI-8226 it was 34.2 µM (inactive); with OVCAR-8, 19.4 µM (inactive); in the assay on HCC 2998, 16.5 µM (inactive); in the assay on MOLT-4, 29 µM (inactive); with SK-MEL-2 it was 22.4 µM (inactive). Further, the GI50 in the assay with EKVX was 48.4 µM (inactive); with HCT-116 it was 23.3 µM (inactive); with SK-MEL-5, 25.5 µM (inactive); in the assay on 786-0, 18.5 µM (inactive); in the assay on NCI-H226 it was 18.5 µM (inactive); in the assay with CAKI-1 it was 39.4 µM (inactive). Besides, the GI50 is 40 µM (inactive) in the assay with A549; 17 µM (inactive) with UACC-62; 22.9 µM (inactive) in the assay with M14; 24.7 µM (inactive) in the assay on HL-60; 43.3 µM (inactive) in the assay with SK-MEL-28.
`CCN(CCN(CC)C(=O)Nc1ccccc1)C(=O)Nc1ccccc1`: the GI50 with SR, with RPMI-8226, with OVCAR-8, in the assay on HCC 2998, in the assay on MOLT-4 and in the assay with DU-145 was > 100 µM (inactive) each time. Further, the GI50 in the assay on SK-MEL-2, in the assay with EKVX, with HCT-116, in the assay with SK-MEL-5, in the assay on 786-0 and with NCI-H226 was > 100 µM (inactive) throughout. Also, the GI50 in the assay with A549, in the assay on UACC-62, with M14, with HL-60 and in the assay on SK-MEL-28 was > 100 µM (inactive) in each case.
Turning to `CCOc1cc2c(c(OCC)c1O)CC[C@@H]1[C@@H]2CC[C@]2(C)[C@@H](O)CC[C@@H]12`, the GI50 in the assay with SR is 0.331 µM (active); in the assay with RPMI-8226 it was 2.74 µM (inactive); in the assay with OVCAR-8 it was 7.59 µM (inactive); with MOLT-4 it was 0.681 µM (active); in the assay with SK-MEL-2, 14 µM (inactive); in the assay with EKVX it was 6.1 µM (inactive). Also, the GI50 in the assay with MDA-MB-435 is 0.203 µM (active); in the assay on SK-MEL-5 it was 1.21 µM (inactive); in the assay with 786-0, 2.45 µM (inactive); in the assay with NCI-H226, 15.9 µM (inactive); in the assay on CAKI-1, 0.746 µM (active); in the assay on A549 it was 7.11 µM (inactive). The GI50 with UACC-62 was 0.482 µM (active); in the assay on M14, 3.05 µM (inactive); in the assay on HL-60, 0.297 µM (active).
Take `COc1ccc(N2C(=O)CC(=O)N(C(=O)COc3ccc(OCC(=O)N4C(=O)CC(=O)N(c5ccc(OC)cc5)C4=S)cc3)C2=S)cc1`: the GI50 with RPMI-8226 was 19.6 µM (inactive); in the assay with HCC 2998, 32.3 µM (inactive); with MOLT-4, 32 µM (inactive); in the assay on DU-145 it was 49.9 µM (inactive); with SK-MEL-2 it was 23.9 µM (inactive); with EKVX it was 92.9 µM (inactive). Besides, the GI50 with MDA-MB-435 was 36.9 µM (inactive); with HCT-116 it was 15.7 µM (inactive); with SK-MEL-5, 36.8 µM (inactive); with 786-0, 36.5 µM (inactive); with NCI-H226, 30.5 µM (inactive); with CAKI-1, 0.718 µM (active). For the same molecule, the GI50 in the assay with A549 is 35.8 µM (inactive); in the assay on UACC-62, 29.2 µM (inactive); with M14 it was 54.5 µM (inactive); in the assay on SK-MEL-28 it was 48.1 µM (inactive).
For the molecule `COC(CN(C=O)[C@@H](c1ccc(Cl)cc1)c1cc2ccccc2o1)OC`, the GI50 is 16 µM (inactive) in the assay with RPMI-8226; 16 µM (inactive) in the assay on OVCAR-8; 17.8 µM (inactive) in the assay on MOLT-4; 14.8 µM (inactive) in the assay on DU-145; 16.7 µM (inactive) in the assay with SK-MEL-2; 15.8 µM (inactive) in the assay with EKVX. Besides, the GI50 is 18.5 µM (inactive) with MDA-MB-435; 15.8 µM (inactive) in the assay with HCT-116; 15.5 µM (inactive) in the assay on SK-MEL-5; 23.6 µM (inactive) in the assay on 786-0; 18.1 µM (inactive) in the assay with NCI-H226; 15.8 µM (inactive) with CAKI-1. The GI50 in the assay with A549 was 21 µM (inactive); with UACC-62, 14.8 µM (inactive); in the assay with M14, 17.3 µM (inactive); in the assay on HL-60 it was 20.5 µM (inactive); in the assay with SK-MEL-28 it was 18.5 µM (inactive).
With `O=C(O)c1cc2ccccc2c(/N=N/c2ccc(S(=O)(=O)Nc3ncccn3)cc2)c1O`, the GI50 in the assay with SR, in the assay with RPMI-8226, with OVCAR-8, with HCC 2998, with MOLT-4 and in the assay on SK-MEL-2 was > 100 µM (inactive) each time. Besides, the GI50 with EKVX, in the assay with MDA-MB-435, in the assay on HCT-116, in the assay on SK-MEL-5, with 786-0 and in the assay on NCI-H226 was > 100 µM (inactive) throughout. Also, the GI50 in the assay on CAKI-1, in the assay with A549, in the assay with UACC-62, with M14, in the assay on HL-60 and with SK-MEL-28 was > 100 µM (inactive) each time.
On to `CC1=CC(C)(C)NN1C1=NS(=O)(=O)c2ccccc2N1C`, for which the GI50 in the assay on OVCAR-8 was > 100 µM (inactive); with HCC 2998, > 100 µM (inactive); in the assay with MOLT-4, 47.9 µM (inactive); in the assay with DU-145, > 100 µM (inactive); in the assay on SK-MEL-2, > 100 µM (inactive); in the assay on EKVX it was > 100 µM (inactive). The GI50 in the assay with MDA-MB-435, in the assay with HCT-116, in the assay with SK-MEL-5, in the assay on 786-0, in the assay on NCI-H226 and in the assay with CAKI-1 was > 100 µM (inactive) in each case. Further, the GI50 in the assay with A549, with UACC-62, with M14, in the assay with HL-60 and in the assay on SK-MEL-28 was > 100 µM (inactive) in each case.
For the molecule `C/C(=C\c1ccccn1)c1ccccn1`, the GI50 in the assay on RPMI-8226, with OVCAR-8, with HCC 2998, in the assay on MOLT-4, in the assay with DU-145 and in the assay on SK-MEL-2 was > 100 µM (inactive) each time. The GI50 in the assay with EKVX, with MDA-MB-435, with HCT-116, in the assay with SK-MEL-5, in the assay with 786-0 and in the assay with CAKI-1 was > 100 µM (inactive) in each case. In addition, the GI50 with A549, with UACC-62, with M14 and with SK-MEL-28 was > 100 µM (inactive) in each case.
